# According to patent publication US20070093520A1, “Method of treatment of diarrhea-predominant irritable bowel syndrome in a subject” (priority 2005, published 2007):
# System: diarrhea-predominant IBS subjects
# Assay: 3007 Study: open-label 52-week safety study, adverse events and withdrawals
# Conditions: Placebo/Cilansetron 2 mg
smiles,measurement,setting,value
"Cc1nccn1C[C@H]1CCc2c(c3cccc4c3n2CCC4)C1=O [cilansetron, (R)-(−)-4,5,6,8,9,10-hexahydro-10-[(2-methyl-1H-imidazol-1-yl)methyl]-11H-pyrido-[3,2,1-jk]-carbazol-11-one]",TEAE: Protein Urine Present,,1 (<1%) n (%)
same,TEAE: Pruritus Ani,,1 (<1%) n (%)
same,TEAE: Rectal Cramps,,0 n (%)
same,TEAE: Rectal Disorder NOS,,1 (<1%) n (%)
same,TEAE: Rectal Haemorrhage,,4 (1%) n (%)
same,TEAE: Rectal Tenesmus,,2 (<1%) n (%)
same,TEAE: Red Blood Cell Analyses,,0 n (%)
same,TEAE: Red Blood Cells Urine,,1 (<1%) n (%)
same,TEAE: Renal Bruit,,1 (<1%) n (%)
same,TEAE: Renal Function Analyses,,3 (1%) n (%)
same,TEAE: Reproductive Organ and Breast Histopathology Procedures,,0 n (%)
same,TEAE: Respiratory Tract Infection NOS,,0 n (%)
same,TEAE: Rheumatoid Arthritis,,1 (<1%) n (%)
same,TEAE: Rheumatoid Arthritis Aggravated,,1 (<1%) n (%)
same,TEAE: Rheumatoid Arthropathies,,2 (<1%) n (%)
same,TEAE: Rhinoviral Infections,,10 (4%) n (%)
same,TEAE: Rib Fracture,,0 n (%)
same,TEAE: Road Traffic Accident,,0 n (%)
same,TEAE: Rotator Cuff Syndrome,,1 (<1%) n (%)
same,TEAE: Seizures and Seizure Disorders NEC,,0 n (%)
same,TEAE: Sinus Headache,,0 n (%)
same,TEAE: Sinusitis Acute NOS,,1 (<1%) n (%)
same,TEAE: Sinusitis NOS,,13 (5%) n (%)
same,TEAE: Site Specific Injuries NEC,,0 n (%)
same,TEAE: Skeletal and Cardiac Muscle Analyses,,8 (3%) n (%)
same,TEAE: Skin Fungal Infection NOS,,0 n (%)
same,TEAE: Skin Infection NOS,,1 (<1%) n (%)
same,TEAE: Skin Structures and Soft Tissue Infections,,2 (<1%) n (%)
same,TEAE: Sleep Apnoea Syndrome,,2 (<1%) n (%)
same,TEAE: Sleep Apnoeas,,2 (<1%) n (%)
same,TEAE: Soft Tissue Disorders NEC,,0 n (%)
same,TEAE: Somnolence,,1 (<1%) n (%)
same,TEAE: Speech and Language Abnormalities,,1 (<1%) n (%)
same,TEAE: Spinal Cord and Nerve Root Disorders NEC,,1 (<1%) n (%)
same,TEAE: Spondylitic Myelopathy,,1 (<1%) n (%)
same,TEAE: Spondyloarthropathies,,0 n (%)
same,TEAE: Spondylosis,,0 n (%)
same,TEAE: Staphylococcal Infection NOS,,0 n (%)
same,TEAE: Staphylococcal Infections,,0 n (%)
same,TEAE: Status Epilepticus,,0 n (%)
same,TEAE: Stomach Discomfort,,1 (<1%) n (%)
same,TEAE: Streptococcal Infection NOS,,0 n (%)
same,TEAE: Streptococcal Infections,,3 (1%) n (%)
same,TEAE: Stress Fracture,,0 n (%)
same,TEAE: Temporomandibular Joint Disorder NOS,,0 n (%)
same,TEAE: Tendon Disorders,,3 (1%) n (%)
same,TEAE: Tendonitis,,2 (<1%) n (%)
same,TEAE: Tension Headaches,,0 n (%)
same,TEAE: Thoracic Cage Fractures and Dislocations,,0 n (%)
same,TEAE: Tinea Cruris,,1 (<1%) n (%)
same,TEAE: Tinea Infections,,1 (<1%) n (%)
same,TEAE: Tinea Pedis,,0 n (%)
same,TEAE: Tissue Enzyme Analyses NEC,,1 (<1%) n (%)
same,TEAE: Tongue Coated,,0 n (%)
same,TEAE: Tongue Signs and Symptoms,,0 n (%)
same,TEAE: Tooth Abscess,,1 (<1%) n (%)
same,TEAE: Tooth Disorder NOS,,0 n (%)
same,TEAE: Tooth Impacted,,0 n (%)
same,TEAE: Tooth Infection,,1 (<1%) n (%)
same,TEAE: Toothache,,1 (<1%) n (%)
same,TEAE: Total Number of Subjects with at Least One TEAE,,217 (78%) n (%)
same,TEAE: Transient Global Amnesia,,0 n (%)
same,TEAE: Tremor,,1 (<1%) n (%)
same,TEAE: Tremor (Excl Congenital),,1 (<1%) n (%)
same,TEAE: Trigger Finger,,1 (<1%) n (%)
same,TEAE: Triglyceride Analyses,,4 (1%) n (%)
same,TEAE: Umbilical Hernia NOS,,0 n (%)
same,TEAE: Umbilical Hernias,,0 n (%)
same,TEAE: Upper Limb Fractures and Dislocations,,1 (<1%) n (%)
same,TEAE: Upper Respiratory Tract Infection NOS,,8 (3%) n (%)
same,TEAE: Upper Respiratory Tract Infections - Pathogen Class Unspecified,,19 (7%) n (%)
same,TEAE: Urinalysis NEC,,6 (2%) n (%)
same,TEAE: Urinary Tract Infection NOS,,10 (4%) n (%)
same,TEAE: Urinary Tract Infections,,12 (4%) n (%)
same,TEAE: Urine Analysis Abnormal NOS,,0 n (%)
same,TEAE: Urine Bilirubin Increased,,1 (<1%) n (%)
same,TEAE: Urine Ketone Body Present,,2 (<1%) n (%)
same,TEAE: Urine Leukocyte Esterase Positive,,2 (<1%) n (%)
same,TEAE: Urobilin Urine Present,,0 n (%)
same,TEAE: Vascular Auscultatory Investigations,,2 (<1%) n (%)
same,TEAE: Vascular Tests NEC (Incl Blood Pressure),,2 (<1%) n (%)
same,TEAE: Vasovagal Attack,,0 n (%)
same,TEAE: Viral Infection NOS,,2 (<1%) n (%)
same,TEAE: Viral Infections NEC,,8 (3%) n (%)
same,TEAE: Vomiting NOS,,9 (3%) n (%)
same,TEAE: Weight Decreased,,1 (<1%) n (%)
same,TEAE: Weight Increased,,0 n (%)
same,TEAE: White Blood Cell Analyses,,1 (<1%) n (%)
same,TEAE: White Blood Cell Count Decreased,,0 n (%)
same,TEAE: White Blood Cells Urine Positive,,0 n (%)
same,TEAE leading to permanent discontinuation: Abdominal Distension,N=279,2 (<1%) n (%)
same,TEAE leading to permanent discontinuation: Abdominal Pain Aggravated,N=279,0 n (%)
same,TEAE leading to permanent discontinuation: Abdominal Pain Lower,N=279,2 (<1%) n (%)
same,TEAE leading to permanent discontinuation: Abdominal Pain NOS,N=279,6 (2%) n (%)
same,TEAE leading to permanent discontinuation: Abdominal Pain Upper,N=279,3 (1%) n (%)
same,TEAE leading to permanent discontinuation: Alanine Aminotransferase Increased,N=279,0 n (%)
same,TEAE leading to permanent discontinuation: Angina Pectoris,N=279,0 n (%)
same,TEAE leading to permanent discontinuation: Appendicitis,N=279,0 n (%)
same,TEAE leading to permanent discontinuation: Asthma Aggravated,N=279,0 n (%)
same,TEAE leading to permanent discontinuation: Asthma NOS,N=279,0 n (%)
same,TEAE leading to permanent discontinuation: Back Pain,N=279,1 (<1%) n (%)
same,TEAE leading to permanent discontinuation: Bladder Prolapse,N=279,1 (<1%) n (%)
same,TEAE leading to permanent discontinuation: Blood Bilirubin Increased,N=279,0 n (%)
same,TEAE leading to permanent discontinuation: Blood Pressure Increased,N=279,0 n (%)
same,TEAE leading to permanent discontinuation: Blood Urine Present,N=279,0 n (%)
same,TEAE leading to permanent discontinuation: Bone Neoplasm Malignant,N=279,0 n (%)
same,TEAE leading to permanent discontinuation: Cardiac Disorders,N=279,0 n (%)
same,TEAE leading to permanent discontinuation: Chest Discomfort,N=279,1 (<1%) n (%)
same,TEAE leading to permanent discontinuation: Chest Pain,N=279,1 (<1%) n (%)
same,TEAE leading to permanent discontinuation: Chest Wall Pain,N=279,1 (<1%) n (%)
same,TEAE leading to permanent discontinuation: Colitis Ischaemic,N=279,1 (<1%) n (%)
same,TEAE leading to permanent discontinuation: Constipation,N=279,21 (8%) n (%)
same,TEAE leading to permanent discontinuation: Cough,N=279,1 (<1%) n (%)
same,TEAE leading to permanent discontinuation: Dehydration,N=279,0 n (%)
same,TEAE leading to permanent discontinuation: Depression,N=279,1 (<1%) n (%)
same,TEAE leading to permanent discontinuation: Diarrhoea Aggravated,N=279,1 (<1%) n (%)
same,TEAE leading to permanent discontinuation: Diarrhoea Haemorrhagic,N=279,1 (<1%) n (%)
same,TEAE leading to permanent discontinuation: Diarrhoea NOS,N=279,2 (<1%) n (%)
same,TEAE leading to permanent discontinuation: Dizziness,N=279,2 (<1%) n (%)
same,TEAE leading to permanent discontinuation: Dyspepsia,N=279,1 (<1%) n (%)
same,TEAE leading to permanent discontinuation: Ear and Labyrinth Disorders,N=279,0 n (%)
same,TEAE leading to permanent discontinuation: Epigastric Discomfort,N=279,1 (<1%) n (%)
same,TEAE leading to permanent discontinuation: Eructation,N=279,0 n (%)
same,TEAE leading to permanent discontinuation: Eye Disorders,N=279,1 (<1%) n (%)
same,TEAE leading to permanent discontinuation: Faecal Abnormality NOS,N=279,0 n (%)
same,TEAE leading to permanent discontinuation: Faecal Impaction,N=279,1 (<1%) n (%)
same,TEAE leading to permanent discontinuation: Faecal Incontinence,N=279,1 (<1%) n (%)
same,TEAE leading to permanent discontinuation: Faeces Hard,N=279,0 n (%)
same,TEAE leading to permanent discontinuation: Fatigue,N=279,1 (<1%) n (%)
same,TEAE leading to permanent discontinuation: Fibroma NOS,N=279,1 (<1%) n (%)
same,TEAE leading to permanent discontinuation: Flatulence,N=279,5 (2%) n (%)
same,TEAE leading to permanent discontinuation: Gastric Irritation,N=279,0 n (%)
same,TEAE leading to permanent discontinuation: Gastrointestinal Disorders,N=279,40 (14%) n (%)
same,TEAE leading to permanent discontinuation: Gastrointestinal Motility Disorder NOS,N=279,1 (<1%) n (%)
same,TEAE leading to permanent discontinuation: General Disorders and Administration Site Conditions,N=279,4 (1%) n (%)
same,TEAE leading to permanent discontinuation: Haemorrhoidal Haemorrhage,N=279,1 (<1%) n (%)
same,TEAE leading to permanent discontinuation: Hallucination NOS,N=279,1 (<1%) n (%)
same,"TEAE leading to permanent discontinuation: Hallucination, Auditory",N=279,1 (<1%) n (%)
same,TEAE leading to permanent discontinuation: Headache NOS,N=279,3 (1%) n (%)
same,TEAE leading to permanent discontinuation: Headache NOS Aggravated,N=279,0 n (%)
same,TEAE leading to permanent discontinuation: Heart Rate Increased,N=279,0 n (%)
same,TEAE leading to permanent discontinuation: Hepatobiliary Disorders,N=279,0 n (%)
same,TEAE leading to permanent discontinuation: Hepatosplenomegaly NOS,N=279,0 n (%)
same,TEAE leading to permanent discontinuation: Hiatus Hernia,N=279,0 n (%)
same,TEAE leading to permanent discontinuation: Investigations,N=279,0 n (%)
same,TEAE leading to permanent discontinuation: Irritable Bowel Syndrome Aggravated,N=279,0 n (%)
same,TEAE leading to permanent discontinuation: Lethargy,N=279,1 (<1%) n (%)
same,TEAE leading to permanent discontinuation: Metabolism and Nutrition Disorders,N=279,0 n (%)
same,TEAE leading to permanent discontinuation: Migraine NOS,N=279,0 n (%)
same,TEAE leading to permanent discontinuation: Muscle Cramps,N=279,0 n (%)
same,TEAE leading to permanent discontinuation: Musculoskeletal and Connective Tissue Disorders,N=279,2 (<1%) n (%)
same,TEAE leading to permanent discontinuation: Nausea,N=279,0 n (%)
same,"TEAE leading to permanent discontinuation: Neoplasms Benign, Malignant and Unspecified (Incl Cysts and Polyps)",N=279,3 (1%) n (%)
same,TEAE leading to permanent discontinuation: Nervous System Disorders,N=279,4 (1%) n (%)
same,"TEAE leading to permanent discontinuation: Pregnancy, Puerperium and Perinatal Conditions",N=279,0 n (%)
same,TEAE leading to permanent discontinuation: Pruritus NOS,N=279,0 n (%)
same,TEAE leading to permanent discontinuation: Psychiatric Disorders,N=279,1 (<1%) n (%)
same,TEAE leading to permanent discontinuation: Psychotic Disorder NOS,N=279,1 (<1%) n (%)
same,TEAE leading to permanent discontinuation: Rash Macular,N=279,1 (<1%) n (%)
same,TEAE leading to permanent discontinuation: Rash NOS,N=279,1 (<1%) n (%)
same,TEAE leading to permanent discontinuation: Rectal Disorder NOS,N=279,1 (<1%) n (%)
same,TEAE leading to permanent discontinuation: Rectal Haemorrhage,N=279,2 (<1%) n (%)
same,TEAE leading to permanent discontinuation: Rectal Tenesmus,N=279,1 (<1%) n (%)
same,TEAE leading to permanent discontinuation: Renal and Urinary Disorders,N=279,1 (<1%) n (%)
same,"TEAE leading to permanent discontinuation: Respiratory, Thoracic and Mediastinal Disorders",N=279,1 (<1%) n (%)
same,TEAE leading to permanent discontinuation: Skin and Subcutaneous Tissue Disorders,N=279,3 (1%) n (%)
same,TEAE leading to permanent discontinuation: Somnolence,N=279,0 n (%)
same,TEAE leading to permanent discontinuation: Stomach Discomfort,N=279,1 (<1%) n (%)
same,TEAE leading to permanent discontinuation: Suicidal Ideation,N=279,1 (<1%) n (%)
